Read-outs that look alike come from different tables or passages of the source.
Legend:
p38alpha [1] = molecular target: T1, p38alpha (Homo sapiens, UniProt Q16539); assay: p38 cascade kinase reaction (inactive p38alpha, MKK6, ATF2, ADP-Glo); assay type: biochemical; settings: ATP 100 μM; compound 10 μM; n=4; read-out: inhibition, ATP-site competitive assay, cascade p38alpha/ATF-2
T1 construct: purchased Invitrogen PV3305

p38alpha [2] = molecular target: T1, p38alpha; assay: as above; assay type: biochemical; settings: for inhibition at 10 µM: compound 10 μM; for inhibition at 100 µM: compound 100 μM
Protocol: Purified recombinant activated p38alpha (10 nM)(ProQinase) was preincubated 10 minutes at 30° C. with the compound of interest at concentrations between 1 and 100 µM in duplicate in a final volume of 30 ul of kinase buffer (Hepes 60 mM pH 7.5, MgCl2 3 mM, MnCl2 3 mM, Sodium Orthovanadate 3 μM, DTT 1.2 mM). After preincubation, peptide substrate (SignalChem #P03-58) and ATP were added to a final concentration of 10 μM and 100 μM respectively, and then incubated 40 minutes at 30° C. for the kinase reaction. Phosphorylation was analyzed with ADP-GloM (Promega #V9101) and emitted luminescence was measured with BMG Fluostar microplate reader.
(§1) After preincubation, MKK6 (ProQinase), ATF2 (ProQinase) and ATP were added to a final concentration of 10 nM, 5 μM and 10 μM respectively, then incubated 40 minutes at 30° C. and analyzed with ADP-Glo™.

p38αR189A = molecular target: T2, p38αR189A (Homo sapiens, UniProt Q16539, R189A); assay: site-mutated p38 phosphorylation cascade assay, R189A mutant; assay type: biochemical; settings: compound 10 uM
T2 construct: made in house; host or cells: E. coli XL10-Gold
T2 sequence (Q16539 whole entry R189A): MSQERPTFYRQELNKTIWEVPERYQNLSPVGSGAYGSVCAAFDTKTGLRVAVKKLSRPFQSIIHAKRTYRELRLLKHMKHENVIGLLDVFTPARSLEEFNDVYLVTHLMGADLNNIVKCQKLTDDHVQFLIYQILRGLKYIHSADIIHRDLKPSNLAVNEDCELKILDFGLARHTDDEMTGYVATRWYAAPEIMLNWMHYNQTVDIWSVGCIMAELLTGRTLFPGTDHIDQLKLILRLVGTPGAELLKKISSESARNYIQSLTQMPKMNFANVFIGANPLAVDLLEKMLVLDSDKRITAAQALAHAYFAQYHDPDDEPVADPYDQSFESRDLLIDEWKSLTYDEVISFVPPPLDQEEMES
Protocol: as §1
(§2) Replacement of specific residues arginine 186 and 189 of p38α (pGEX4T-1-p38α) for alanine was performed with the QuikChange Lightining Site-Directed Mutagenesis Kit (Agilent Technologies). The following oligonucleotides were used for the arginine 186 to alanine substitution: forward primer: 5′-SEQ ID NO 7-3′; reverse primer: 5′-SEQ ID NO 8-3′. Oligonucleotides used for the arginine 189 to alanine substitution were: forward primer: 5′-SEQ ID NO 9-3′; reverse primer: 5′-SEQ ID NO 10-3′. Mutations were validated by sequencing (Genomic Unit, Parque Cientifico de Madrid). E. coli XL10-Gold ultracompentent cells (Agilent Technologies) were transformed with the vector plasmids containing p38αWT and mutants. For the expression of recombinant p38α transformed cells were cultured overnight at 37° C. in 50 ml of fresh LB medium containing ampicillin (100 μg/ml). After that, culture was diluted in fresh LB to A595=0.4 and grown for approximately 1 h at 37° C. until exponential growth and then induced with Isopropyl-β-D-thiogalactopyranoside (IPTG) 1 mM for 5 h. The cells were collected by centrifugation and cell pellet were resuspended in 50 ml of cold lysis buffer: PBS pH 7.4, EDTA 10 mM, PMSF 1 mM, Benzamidine 0.2 mM, DTT 5 mM, Triton X-100 1% and Lysozyme 1 mg/ml. The soluble and insoluble fractions were separated by centrifugation (16,000 g for 20 min). The soluble fraction was incubated for 2 hours with 1 ml of pre-equilibrated Glutathione Sepharose 4B (GE Healthcare) and the resin was extensively washed in a column with 200 ml of binding buffer: PBS, PMSF 1 mM and benzamidine 0.2 mM. Proteins were eluted with 1 ml of Tris-HCl 50 mM pH 8.0 and reduced glutathione 20 mM. 20% glycerol was added to purified proteins and stored at −80° C. Protein concentration and purity was assessed by SDS-PAGE. Kinase activity was measured by ADP-glo kit using MKK6 as activator and ATF2 as substrate. Activity recorded for p38αR186A and p38αR189A were 15.5% and 4.8%, respectively (n=4) related to wild type protein.

[3] = tested on: Fibroblast-like synoviocytes (FLS) from patients with rheumatoid arthritis; assay: inflammatory mediators (IL6, IL8, MCP-1) by ELISA in FLS stimulated with TNF-alpha; assay type: cell-based, human; settings: compound 100 μM
Protocol: Fibroblast-like synoviocytes (FLS) from patients with rheumatoid arthritis (RA) were obtained at the time of synovectomy or joint replacement. All RA patients fulfilled the American College of Rheumatology […] criteria for the diagnosis of RA (Arnett FC y cols. 1988 Arthritis Rheum 31(3):315-24).
Synovial tissue was minced and incubated with 10 μg/ml collagenase in serum-free Dulbecco modified Eagle medium (DMEM; Gibco Invitrogen, Barcelona, Spain) for 3 h at 37° C. After digestion, FLS were filtered through a nylon cell strainer (BD Falcon, Franklin Lakes, USA), washed extensively, and cultured in DMEM supplemented with 10% v/v fetal calf serum, 1% penicillin-streptomycin, and 1% L-glutamine (all reagents from PAA, Laboratories GmbH) in a humidified 5% C02 atmosphere. Adherent cells at 80-90% confluence were trypsinised and diluted at a split ratio of 1:3. FLS from 4 patients and between passages 3 to 8 were used for all experiments.
Enzyme-Linked Immunosorbent Assay (ELISA): RA FLS (1×10^4 cells/well) were cultured in DMEM 1% FCS in 96 well plates and treated with p-p38 inhibitors for 1 h. After, they were stimulated with TNF-α (10 ng/ml, Sigma Aldrich) and both treatments were present in the culture throughout the experiment. The supernatants were harvested at 18 h after treatment and assayed for IL6, IL8/CXCL8 and monocyte chemoattractant protein (MCP)-1/CCL2 by ELISA according to the manufacturer's instructions (BD Bioscience, San Jose, Calif., USA).

p38beta = p38beta (Homo sapiens, UniProt Q15759); assay: p38 cascade kinase reaction, p38beta/ATF-2; assay type: biochemical
Chain of p38beta (Q15759 whole entry): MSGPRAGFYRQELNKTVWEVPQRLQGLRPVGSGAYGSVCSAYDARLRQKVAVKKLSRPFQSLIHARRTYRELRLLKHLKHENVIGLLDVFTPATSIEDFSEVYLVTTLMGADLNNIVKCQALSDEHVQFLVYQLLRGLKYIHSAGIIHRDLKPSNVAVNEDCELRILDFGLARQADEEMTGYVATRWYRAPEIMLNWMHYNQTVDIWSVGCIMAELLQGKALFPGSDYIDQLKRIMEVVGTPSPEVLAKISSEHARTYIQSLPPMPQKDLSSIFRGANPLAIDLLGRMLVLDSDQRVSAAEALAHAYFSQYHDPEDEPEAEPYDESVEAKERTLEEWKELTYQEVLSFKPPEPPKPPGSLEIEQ
Protocol: as §1

[4] = tested on: TNF-α secretion, THP-1 cells; assay: Inhibition of TNF-α secretion by LPS-stimulated THP-1; assay type: cell-based; settings: Homo sapiens, THP-1, 3 h, monocytes with LPS, read-out: TNF abetment
Protocol: Inhibition of TNF-α Secretion by a Human Monocytic Cell Line, THP-1.
THP-1 cells, growing in log phase, were collected by centrifugation and resuspended in RPMI 1640 (Sigma Aldrich), to a final cell concentration of 2×10^6 cells/ml. Cells were plated into 24-well plates (BD Biosciences). Dilutions of compounds in dimethyl sulfoxide (DMSO) were added to the culture to a final concentration M. The final DMSO concentration was 0.5%. The cells […] suspensions were preincubated with compounds for 1 h at 37° C. in a 5% C02 humidified atmosphere before the addition of LPS (Sigma Aldrich, L2654) to a final concentration of 2 μg/ml. After that, cells were incubated for 3 h followed by centrifugation to pellet cells. Cell supernatants were stored at 4° C. until Human analysis for TNF-α content. TNF-α levels were determined by ELISA (TNF Biotrak, GE Healthcare) following the manufacturer's directions. The percentage inhibition was calculated for each compound concentration tested, and the IC50 was calculated for each compound.

THP-1 cells = assay: survival of monocytes with LPS; assay type: cell-based, human
p38alpha wt = molecular target: T3, p38alpha wt (Homo sapiens, UniProt Q16539); assay: site-mutated p38 phosphorylation cascade assay, wild type; assay type: biochemical; settings: compound 10 uM
T3 construct: made in house; host or cells: E. coli XL10-Gold
T3 sequence (Q16539 whole entry): as the sequence (Q16539 whole entry R189A) above, with A189R counted along it
Protocol: as §1, §2

p38αR186A = molecular target: T4, p38αR186A (Homo sapiens, UniProt Q16539, R186A); assay: site-mutated p38 phosphorylation cascade assay, R186A mutant; assay type: biochemical; settings: compound 10 uM
T4 construct: made in house; host or cells: E. coli XL10-Gold
T4 sequence (Q16539 whole entry R186A): as the sequence (Q16539 whole entry R189A) above, with R186A, A189R counted along it
Protocol: as §1, §2

[5] = dose response table, read-out: inhibition p38alpha/ATF-2
[6] = read-out: inhibition p38a/ATF-2 (p38 cascade)

T1 sequence (Q16539 whole entry): as the sequence (Q16539 whole entry R189A) above, with A189R counted along it

Structure (SMILES): CCOC(=O)c1ccc(Nc2nc3nonc3nc2N2CCC(Cc3ccccc3)CC2)cc1 [Compound 1]
- inhibition at 10 µM (p38alpha [1]): 92%
- inhibition at 10 µM (p38alpha [2]; ATP 10 μM, n=4, read-out: inhibition, ATP-site competitive assay, cascade p38alpha/ATF-2): 94%
- inhibition upon ATP increase (ATP-site competition) (p38alpha [2]; cascade p38alpha/ATF-2, n=4): Maintains Inhibition to the Same Level Upon ATP Increase
- inhibition at 10 µM (p38alpha [2]; [5]): 88%
- inhibition at 100 µM (p38alpha [2]; [5]): 101%
- inhibition at 10 µM (p38αR189A): 25%
- IL-6, % of TNF-α control ([3]; FLS sample R 2): 13.8%
- IL-8, % of TNF-α control ([3]; FLS sample R 2): 27.3%
- MCP-1, % of TNF-α control ([3]; FLS sample R 2): 2.1%
- IL-6, % of TNF-α control ([3]; FLS sample R 6): 8.1%
- IL-8, % of TNF-α control ([3]; FLS sample R 6): 4.8%
- MCP-1, % of TNF-α control ([3]; FLS sample R 6): 0.0%
- IL-6, % of TNF-α control ([3]; FLS sample R 8): 23.5%
- IL-8, % of TNF-α control ([3]; FLS sample R 8): 67.4%
- MCP-1, % of TNF-α control ([3]; FLS sample R 8): 22.5%
- IL-6, % of TNF-α control ([3]; FLS sample SH203): 101.4%
- IL-8, % of TNF-α control ([3]; FLS sample SH203): 43.8%
- MCP-1, % of TNF-α control ([3]; FLS sample SH203): 8.8%
- IL-6, % of TNF-α control, Media ([3]; mean of 4 FLS samples): 36.7%
- IL-8, % of TNF-α control, Media ([3]; mean of 4 FLS samples): 35.8%
- MCP-1, % of TNF-α control, Media ([3]; mean of 4 FLS samples): 8.4%
- inhibition at 10 µM (p38beta; compound 10 μM): 58%
- inhibition at 100 µM (p38beta; compound 100 μM): 100%
- inhibition at 1 µM ([4]; 1 uM): 9%
- inhibition at 10 µM ([4]; 10 uM): 40%
- Cell survival (THP-1 cells; 1 uM): 96%
- Cell survival (THP-1 cells; 10 uM): 93%
- inhibition at 10 µM (p38alpha wt): 64%
- inhibition at 10 µM (p38αR186A): 20%

Structure (SMILES): COc1ccccc1NC(=O)C[C@H](NCCCO)C(=O)O [Compound 3]
- inhibition at 100 µM (p38alpha [2]; [6]): 17%

Structure (SMILES): Nc1ccc(OCC(O)C[n+]2ccc(CCS(=O)(=O)[O-])cc2)cc1 (stereo not shown) [Compound 4]
- inhibition at 10 µM (p38alpha [2]; [6]): 8%

Structure (SMILES): CC(C)n1nnnc1C(c1ccc(O)cc1)N1CCN(c2nc3ccccc3s2)CC1 (stereo not shown) [Compound 5]
- inhibition at 10 µM (p38alpha [2]; [6]): 28%

Structure (SMILES): CCOCCCNc1nc2nnnn2c2sc3c(c12)CCN(Cc1ccccc1)C3 [Compound 6]
- inhibition at 10 µM (p38alpha [2]; [6]): 107%

Structure (SMILES): Oc1nc(N/N=C/c2ccc3c(c2)OCO3)nc(N2CCOCC2)n1 [Compound 7]
- inhibition at 10 µM (p38alpha [2]; [6]): 16%
